This is an account of results in patent US5344952A, “Fluoroketone enzyme inhibitors” (priority 1993, dated 1994).

Each structure is given as a SMILES string.

Assay [1] deals with RLE. The assay can be described thus: Sandwich assay for Adenovirus, free inhibitor added to control wells (RLE, o-nitrophenyl butyrate). It is filed as biochemical, rabbit. Conditions: control wells having no antigen; 5×10^-9 M RLE, 50 mM TRIS pH 8.5, 1 mM o-nitrophenyl butyrate; color without inhibitor in ca 15 minutes. As to the method:
A polyvinyl chloride microtiter plate was coated with anit-adenovirus antibody by incubating the plate for 1 hour at 37° C. in a 1:900 dilution of 4.5 mg/mL stock solution of the antibody in a 10 mM carbonate 20 mM ethylenediaminetetraacetic acid (EDTA) buffer. The plate was washed 3 times with a wash buffer solution consisting of 0.5% casein in 10 mM TRIS and 154 mM NaCl at pH 7.6. Adenovirus infected HeLa cells diluted to ca 1×10^5 plaque forming units (PFU)/ml in pH 7.4 phosphate buffered-saline containing 0.05% polyoxyethylenesorbitan monolaurate, 0.1 mg/ML gentamicin, 0.5% phenol red, 0.1% bovine serum albumin, 10 mM EDTA and 100 mM ethylene bis(oxyethylenenitrilo) tetraacetic acid were serially diluted in 2-fold steps across the plate. The plate was incubated-as above to bind the cells to the antibody, washed with wash buffer, incubated with a 0.005 mg/mL tracer solution of anti-adenovirus conjugated to alkaline phosphatase in wash buffer containing 0.5% gelatin and 10% inactivated fetal calf serum. Excess tracer solution was decanted and the plate was washed 3 times with TRIS buffer (without casein). A mixture of a 1×10^-4 M solution of the blocked inhibitor from Example I and 5×10^-9 M RLE in 50 mM TRIS buffer, pH 8.5, was added and the plate was incubated at room temperature for 10 minutes. o-Nitrophenyl butyrate (1 mM) was then added to each well of the plate. […]

The target in assay [2] is T1, Rabbit Liver Esterase (E.C. 3.1.1.1) (Oryctolagus cuniculus, UniProt P12337).
T1 construct: from tissue; host or cells: liver
T1 sequence (P12337 19-565): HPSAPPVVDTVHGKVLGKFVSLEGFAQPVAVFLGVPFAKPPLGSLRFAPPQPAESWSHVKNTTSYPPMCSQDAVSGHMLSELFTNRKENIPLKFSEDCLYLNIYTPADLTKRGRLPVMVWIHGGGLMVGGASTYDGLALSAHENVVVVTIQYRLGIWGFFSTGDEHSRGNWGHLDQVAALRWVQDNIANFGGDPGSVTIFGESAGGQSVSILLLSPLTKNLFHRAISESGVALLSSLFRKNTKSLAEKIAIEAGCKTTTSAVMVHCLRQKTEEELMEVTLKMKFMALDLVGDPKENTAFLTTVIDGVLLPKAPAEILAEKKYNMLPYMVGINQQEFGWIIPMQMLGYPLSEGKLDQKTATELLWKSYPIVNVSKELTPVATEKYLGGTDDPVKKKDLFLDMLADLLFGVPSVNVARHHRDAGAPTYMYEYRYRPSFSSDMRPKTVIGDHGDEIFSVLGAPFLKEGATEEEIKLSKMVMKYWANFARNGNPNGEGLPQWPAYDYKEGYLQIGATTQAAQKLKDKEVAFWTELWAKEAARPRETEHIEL
The assay can be described thus: Inhibition constant, rabbit liver esterase (o-nitrophenylbutyrate hydrolysis). It is filed as biochemical. Conditions: RLE; 50 mM Tris pH=8.0; 20 min incubation at ambient temperature; substrate o-nitro-phenylbutrate. As to the method:
Inhibition constants were measured in 50 mM Tris pH=8.0. Enzyme and inhibitor were incubated at ambient temperature for 20 minutes. Substrate for the enzyme was then added and the rate of hydrolysis was followed spectrophotometrically. The substrate for PLE and RLE was o-nitro-phenylbutrate and for AChE was acetyl thiocholine and Ellman's reagent.

Turning to `O=C(CCc1ccc(O)cc1)C(F)(F)F` [1,1,1-Trifluoro-4-(4-hydroxyphenyl)-2-butanone], the “color formation in control wells on addition of free inhibitor” value in assay [1] is “inhibited color formation for longer periods”.

The Ki is the dissociation constant of the complex between target and ligand, obtained from inhibition or displacement. A high value points to a looser hold on the target. Consider `O=C(/C=C/c1cccc(O)c1)C(F)(F)F` [1,1,1-trifluoro-4-(3-hydroxyphenyl)-3-trans-buten-2-one], for which the affinity in assay [2], expressed as Ki, was 160 nM.
